The record followed here is US9340575B2, “Agonists and antagonists of the urotensinergic system” (INSTITUT NATIONAL DE LA RECHERCHE SCIENTIFIQUE, priority 2011, dated 2016).

Like-named read-outs stand apart in the source and are kept apart here. Marks after values point to notes of the source that are not given here. Square brackets hold non-standard residues; d marks the D form. Peptide text beside a SMILES is read from it. pGlu = O=C1CC[CH](C(=O)O)N1

Assay [1] relates to rat thoracic aorta rings. It is filed as cell-based. The note with it: for Aortic Ring contraction pEC50: endothelium-denuded rat thoracic aorta; for Aortic Ring contraction Emax (%): percentage of contraction induced by KCl (40 mM). The method, then: Binding and functional experiments were performed at least in triplicate and data, expressed as mean±S.E.M, were analyzed using the Prism software (Graph Pad Software, San Diego, Calif.). In all experiments, n represents the total number of animals studied or individual assays performed. The EC50, pEC50, pIC50 values as well as the Emax value were determined from the concentration-response curves using a sigmoidal dose-response fit with variable slope. […] The slope is calculated from the double reciprocal plot of equiactive concentrations of agonist in the presence and absence of antagonist.

Assay [2] deals with rat thoracic aorta rings. In words: Antagonism of UII- or URP-induced contraction of rat aortic ring. It is filed as cell-based. The note with it: pretreatment 10^−6M, 15 min. As for the experimental part:
Male rats (Sprague-Dawley, 250-300 g) were killed by CO2 asphyxiation. The thoracic aorta was then cleared of surrounding tissues and excised from aortic arch to the diaphragm. From each vessel, conjunctive tissues were removed and the clean vessel was cut into 4 mm rings. The endothelium was removed by gently rubbing the vessel's intimal surface. All preparations were placed in 5 ml organ baths filled with oxygenated normal Krebs-Henselheit solution. Contractile responses to 40 mM KCl were used as control at the beginning and at the end of each experiment. Agonistic activity was measured by increasing the concentration of the peptide in the organ chamber (3×10^−11-3×10^−6 M). For antagonist behaviour, thoracic aortic rings were first exposed to URP derivative over a period of 15 min, and then cumulative concentration-response curves to hUII, URP or ET-1 (10^−10-3×10^−6 M) were constructed. The amplitude of the contraction induced by each concentration of peptide was expressed as a percentage of the KCl-induced contraction. Finally, the ability of the antagonist to reverse the hUII-induced contraction was also evaluated. Vessels were pre-contracted with 4 nM hUII (pre-determined EC80) and after the maximum contraction was attained, contractile tone was reversed by adding increasing log unit concentrations of URP derivative. […] Binding and functional experiments were performed at least in triplicate and data, expressed as mean±S.E.M, were analyzed using the Prism software (Graph Pad Software, San Diego, Calif.). In all experiments, n represents the total number of animals studied or individual assays performed. The EC50, pEC50, pIC50 values as well as the Emax value were determined from the concentration-response curves using a sigmoidal dose-response fit with variable slope. Non-competitive antagonist affinities (pKb) were determined using the method of Gaddum where equiactive concentrations of agonist, in the absence or presence of URP derivative, were compared in a linear regression. The resulting slope was used to calculate the equilibrium constant Kb using the following equation: Kb=[B]/(slope−1); where [B] is the antagonist concentration. The slope is calculated from the double reciprocal plot of equiactive concentrations of agonist in the presence and absence of antagonist.

The target of assay [3] is T1, human urotensin II receptor (UT) (Homo sapiens, UniProt Q9UKP6).
T1 construct: expressed in transfected cells; host or cells: CHO cells (CHO-UT), stably transfected, G418 selection
T1 sequence (Q9UKP6 1-389): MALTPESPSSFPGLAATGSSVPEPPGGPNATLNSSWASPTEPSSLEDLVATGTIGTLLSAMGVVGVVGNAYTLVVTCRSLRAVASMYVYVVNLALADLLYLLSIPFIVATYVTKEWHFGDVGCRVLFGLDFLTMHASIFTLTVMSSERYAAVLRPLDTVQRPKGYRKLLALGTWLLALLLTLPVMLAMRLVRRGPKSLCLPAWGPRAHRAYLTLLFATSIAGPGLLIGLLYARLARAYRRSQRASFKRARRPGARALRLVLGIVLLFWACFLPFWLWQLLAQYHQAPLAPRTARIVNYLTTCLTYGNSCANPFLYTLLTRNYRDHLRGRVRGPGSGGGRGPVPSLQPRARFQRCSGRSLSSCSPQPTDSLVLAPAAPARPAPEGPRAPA
The assay is described as follows: Competitive radioligand binding on CHO-UT cells. The method, then:
Transfected CHO cells expressing the human urotensin receptor (CHO-UT) were maintained in Ham-F12 medium with 10% fetal bovine serum (FBS), 2 mM L-glutamine, 100 UI/mL each of penicillin and streptomycin, and 400 μg/mL G418. […] Binding assays were following known literature procedures using CHO cells stably transfected with hGPR14. […] After 90 min of incubation at room temperature, cells were washed, lysed, and the cell-bound radioactivity was quantified using a γ-counter. […] The cells were then washed, lysed, and the radioactivity counted on a γ-counter (1470 Automatic Gamma Counter, Perkin Elmer). Binding and functional experiments were performed at least in triplicate and data, expressed as mean±S.E.M, were analyzed using the Prism software (Graph Pad Software, San Diego, Calif.). In all experiments, n represents the total number of animals studied or individual assays performed. The EC50, pEC50, pIC50 values as well as the Emax value were determined from the concentration-response curves using a sigmoidal dose-response fit with variable slope. […] The slope is calculated from the double reciprocal plot of equiactive concentrations of agonist in the presence and absence of antagonist.

Assay [4] has as its system rat thoracic aorta rings. The assay is described as follows: Effect on ET-1-induced contraction of rat aortic ring. The settings on record: without [Bip^4]URP. It is filed as cell-based. As for the experimental part:
Male rats (Sprague-Dawley, 250-300 g) were killed by CO2 asphyxiation. The thoracic aorta was then cleared of surrounding tissues and excised from aortic arch to the diaphragm. From each vessel, conjunctive tissues were removed and the clean vessel was cut into 4 mm rings. The endothelium was removed by gently rubbing the vessel's intimal surface. All preparations were placed in 5 ml organ baths filled with oxygenated normal Krebs-Henselheit solution. Contractile responses to 40 mM KCl were used as control at the beginning and at the end of each experiment. Agonistic activity was measured by increasing the concentration of the peptide in the organ chamber (3×10^−11-3×10^−6 M). For antagonist behaviour, thoracic aortic rings were first exposed to URP derivative over a period of 15 min, and then cumulative concentration-response curves to hUII, URP or ET-1 (10^−10-3×10^−6 M) were constructed. The amplitude of the contraction induced by each concentration of peptide was expressed as a percentage of the KCl-induced contraction. Finally, the ability of the antagonist to reverse the hUII-induced contraction was also evaluated. Vessels were pre-contracted with 4 nM hUII (pre-determined EC80) and after the maximum contraction was attained, contractile tone was reversed by adding increasing log unit concentrations of URP derivative.

In the next assay the test system is anaesthetized rats. In words: Hemodynamic assessment (arterial blood pressure) in anaesthetized rats. Type of assay: in vivo, rat. As for the experimental part: Male Sprague-Dawley rats, weighing 350-400 g, were anaesthetized by isoflurane inhalation delivered in 100% oxygen (1 l/min) from an Ohmeda Tec 4 anaesthetic vaporizer (Somatechnology, Inc., Bloomfield, Conn., USA). Anaesthesia was maintained by mask inhalation of isoflurane vaporized at concentrations of up to 3% in the induction phase, at 1.5% during acute surgical procedures and at 0.8-1.0% during experimental observations. […]. […] A period of stabilisation of 30 min was observed and the following experimental protocols were then performed and arterial blood pressure was evaluated. During isoflurane inhalation, no breathing complications or changes in blood pressure were observed. […].
In a preliminary study, individual rats received a single i.v. injection of hUII ranging from 1 to 30 nmol/kg. A dose-response curve, reflecting the effect of hUII on the change in blood pressure, was then determined.
In this set of experiments, five groups of rats were used. […] […]. Hemodynamic changes were continuously captured by the pressure probe over a period of 1 h. The maximum rise and the maximum drop in blood pressure was determined and analyzed using the PowerLab software (ADInstruments, Colorado Springs, Colo., USA).
In the control group, the rats received two doses of hUII (10 nmol/kg) with a 30 min interval between the first and second injection.

[5] abbreviates: 125I-hUII 0.2 nM, CHO-UT cells, 95% confidence limits in parentheses, read-out: Binding IC50.

Turning to `CC(NC(=O)C(NC(=O)CNC(=O)C(Cc1c[nH]cn1)NC(=O)C1CCC(=O)N1)C(C)O)C(=O)N1CCCC1C(=O)NC(CCC(=O)O)C(N)=O` (stereo not drawn) [rUII(1-7), Pyr-His-Gly-Thr-Ala-Pro-Glu-NH2] ([pGlu]HGTAPE-NH2; configuration not given here), the “Agonist behaviour in aortic ring contraction (in words)” value (from here on “Agonist behaviour”) with rat thoracic aorta rings [1] is listed as “unable to induce the contraction of rat aortic rings”. In addition, in the assay on rat thoracic aorta rings [2], the “Effect on URP-associated contraction curve (in words)” value is “significant rightward shift” and the “Effect on rUII-induced contraction (in words)” value is “did not significantly alter”.
Take `CC(C)[C@H](NC(=O)[C@@H]1CSSC[C@H](NC(=O)[C@H](C)N)C(=O)N[C@@H](Cc2ccccc2)C(=O)N[C@@H](CC2CCCCC2)C(=O)N[C@@H](CCCCN)C(=O)N[C@@H](Cc2ccc(O)cc2)C(=O)N1)C(=O)O` [Compound 6, H-Ala-Cys-Phe-Cha-Lys-Tyr-Cys-Val-OH]: in the assay on rat thoracic aorta rings [1], the “Agonist behaviour” value is “full but weak agonist”; the EC50 (in general, the midpoint of the concentration-response curve) is greater than 1000 nM; the “Aortic Ring contraction pEC50” value is on record as less than 6. In addition, the “Aortic Ring contraction Emax (%), maximum efficacy at 10^−5.5M” value in the assay on rat thoracic aorta rings [1] (percentage of KCl (40 mM) contraction, at 10^−5.5M) is given as 77^d %. For the same compound, in assay [3] (versus compound 5), the “Reduction in binding affinity compared to compound 5” value was 3 fold.
As for `CC(C)[C@H](NC(=O)[C@@H]1CSSC[C@H](NC(=O)[C@H](C)N)C(=O)N[C@@H](Cc2ccccc2)C(=O)N[C@@H](c2ccccc2)C(=O)N[C@@H](CCCCN)C(=O)N[C@@H](Cc2ccc(O)cc2)C(=O)N1)C(=O)O` [Compound 14, H-Ala-Cys-Phe-Phg-Lys-Tyr-Cys-Val-OH], in the assay on rat thoracic aorta rings [1], the EC50 stood at 251 nM, the “Aortic Ring contraction pEC50” value turned out to be 6.60 ± 0.15 and the “Aortic Ring contraction Emax (%)” value was found to be 102 ± 9%. The “Binding affinity for UT (in words)” value in assay [3] is reported as “high binding affinity”. In addition, the IC50 – broadly, the midpoint of a concentration-inhibition curve – in assay [3] (setting [5]) is 29 nM.
Regarding endothelin-1 [ET-1, reference compound], in the assay on rat thoracic aorta rings [4], the “ET-1 Emax” value is 119±6 and the “ET-1 pEC50” value was found to be 8.06±0.15.
Take `CC(C)[C@H](NC(=O)[C@@H]1CSSC[C@H](NC(=O)[C@H](C)N)C(=O)N[C@@H](Cc2ccccc2)C(=O)N2Cc3[nH]c4ccccc4c3C[C@H]2C(=O)N[C@@H](CCCCN)C(=O)N[C@@H](Cc2ccc(O)cc2)C(=O)N1)C(=O)O` [Compound 10, H-Ala-Cys-Phe-Tpi-Lys-Tyr-Cys-Val-OH]: in the assay on rat thoracic aorta rings [1], the “Agonist behaviour” value was “vasoconstriction comparable to hUII or URP with however a slightly reduced potency” and the “Aortic Ring contraction Emax (%)” value is given as 139 ± 17%. For the same compound, the “Binding affinity for UT (in words)” value in assay [3] is reported as “high affinity for UT”.
On to `CC(C)[C@H](NC(=O)[C@@H]1CSSC[C@H](NC(=O)[C@H](C)N)C(=O)N[C@@H](Cc2ccccc2)C(=O)N[C@@H](Cc2c[nH]c3ccccc23)C(=O)N[C@@H](CCCCN)C(=O)N[C@@H](Cc2ccc(O)cc2)C(=O)N1)C(=O)O` [Compound 2, reference compound], for which, in the assay on rat thoracic aorta rings [1], the EC50 turned out to be 7 nM, the “Aortic Ring contraction pEC50” value is recorded as 8.09±0.18 and the “Aortic Ring contraction Emax (%)” value was determined as 100±6%. Besides, the “Binding affinity for UT (in words)” value in assay [3] was “high affinity”. In addition, the IC50 in assay [3] (Binding (125I-URP) IC50 (nM), radioligand 125I-URP, recombinant human UT) came to 31.8 nM. In assay [3] (Binding (125I-hUII) IC50 (nM), radioligand 125I-hUII, recombinant human UT), the IC50 is 12.4 nM. In addition, in assay [3] (radioligand 125I-hUII, recombinant human UT), the “Binding (125I-hUII) pIC50” value is on record as 7.90 ± 0.11. Further, in the assay with anaesthetized rats (0.01 μmol/kg i.v.), the “Hemodynamic response to bolus i.v. injection” value was “biphasic hemodynamic response”, the “Time of hypotension nadir” value is reported as roughly 6 min and the “Time of pressor phase peak” value is recorded as roughly 1 min. The “Response to repeated injections” value with anaesthetized rats (10 nmol/kg twice, 30 min interval) is on record as “equivalent biphasic responses”. Further, the “Effect of prior URP injection on hUII hemodynamic response” value in the assay with anaesthetized rats (hUII 30 min after URP bolus, 10 nmol/kg) is listed as “such observation was not made”.
`CC(C)[C@H](NC(=O)[C@@H]1CSSC[C@H](NC(=O)[C@H](C)N)C(=O)N[C@@H](Cc2ccccc2)C(=O)N[C@H](c2ccccc2)C(=O)N[C@@H](CCCCN)C(=O)N[C@@H](Cc2ccc(O)cc2)C(=O)N1)C(=O)O` [Compound 15, [D-Phg^4]URP]: in the assay on rat thoracic aorta rings [1], it took 117 nM to reach a half-maximal effect (EC50), the “Aortic Ring contraction pEC50” value came out at 6.93 ± 0.09 and the “Aortic Ring contraction Emax (%)” value amounted to 116 ± 5%. The “Binding affinity for UT (in words)” value in assay [3] is “high binding affinity”. For the same compound, the IC50 in assay [3] (setting [5]) was found to be 29 nM.
